Data set [1] has as its system New Zealand White rabbits. The experiment in a line: Hypoglycemic activity after subcutaneous injection in fasted rabbits (blood glucose, percent of original). In kind it is in vivo, rabbit. The conditions noted are these: for Percent of Original Blood Glucose: added zinc 0 mg/ml, 0.2 U/kg s.c., 40 U/ml, n = 10 rabbits.
Description: Solutions were prepared containing various amounts of zinc (0-2.4 mg/ml) in the form of zinc chloride. Glacial acetic acid was used to solublize each of the solutions at a final pH range of pH 4-6.
New Zealand White rabbits, mostly female, all weighing 0 2.7-4 kg, 0.5-4 years of age and fasted 16 hours prior to administration of sample were used for testing.
At various times, 100 μl volumes of blood were obtained from the marginal ear veins, mixed with 900 μl volumes of anticoagulant (EDTA-sodium fluoride) and analyzed for glucose content. The glucose values were standardized to reflect percent of original blood glucose measured prior to sample injection.
For data set [2] the following is noted: standardized value used in the formula for test solutions; cited from earlier work.

In the case of “Des(64) HPI: split(64) proinsulin wherein Lys-64 is removed”, the “Percent of Original Blood Glucose” value stood at 63.1% in data set [1] (1 hour after injection), 70.5% in data set [1] (2 hours after injection), 90.6% in data set [1] (4 hours after injection) and 90.0% in data set [1] (6 hours after injection). The hypoglycemic activity entry in data set [1] (result in words, animal model) is listed as “hypoglycemic activity of its own”.
With “human insulin: natural human insulin, reference for biopotency”, the “standardized value (potency per mg protein)” value in data set [2] is on record as 28.85 U/mg.
